Source: PubChem BioAssay (NCI)
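Step 1: Grow cells in 96-well plates. Step 2: Expose to compound for 48 hours at 5 concentrations. Step 3: Interpolate endpoints linearly; if unreached, use highest concentration. GI50 = concentration required for 50% inhibition of growth. TGI: concentration producing complete growth inhibition.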

What was measured:
Experiment in all cases: NCI-60 cell line screen, 48 h
CCRF-CEM leukemia = tested on: CCRF-CEM leukemia
EKVX NSCLC = tested on: EKVX NSCLC
K-562 leukemia = tested on: K-562 leukemia
RPMI-8226 leukemia = tested on: RPMI-8226 leukemia
SNB-75 CNS = tested on: SNB-75 CNS
MDA-MB-231 breast = tested on: MDA-MB-231 breast
NCI/ADR-RES ovarian = tested on: NCI/ADR-RES ovarian
PC-3 prostate = tested on: PC-3 prostate
T-47D breast = tested on: T-47D breast
MALME-3M melanoma = tested on: MALME-3M melanoma

Row | Compound | TGI (CCRF-CEM leukemia) | TGI (EKVX NSCLC) | TGI (K-562 leukemia) | TGI (RPMI-8226 leukemia) | TGI (SNB-75 CNS) | GI50 (CCRF-CEM leukemia) | GI50 (EKVX NSCLC) | GI50 (K-562 leukemia) | GI50 (MDA-MB-231 breast) | TGI (MDA-MB-231 breast) | GI50 (NCI/ADR-RES ovarian) | TGI (NCI/ADR-RES ovarian) | GI50 (PC-3 prostate) | TGI (PC-3 prostate) | GI50 (RPMI-8226 leukemia) | GI50 (SNB-75 CNS) | GI50 (T-47D breast) | TGI (T-47D breast) | GI50 (MALME-3M melanoma) | TGI (MALME-3M melanoma)
1 | CCCNC(=O)Nc1c([N+](=O)[O-])cc(C(F)(F)F)cc1[N+](=O)[O-] | > 100 µM | > 100 µM | > 100 µM | > 100 µM | > 100 µM | – | – | – | – | – | – | – | – | – | – | – | – | – | – | –
2 | Clc1nccc2c(-c3csc(-c4c[nH]c5ccc(Br)cc45)n3)c[nH]c12 | 20.9 µM | 12.4 µM | 9.44 µM | 39 µM | 10.9 µM | 3.16 µM | 3.11 µM | 2.73 µM | 1.68 µM | 4.62 µM | 2.71 µM | 10.7 µM | 3.86 µM | 14 µM | 4.03 µM | 2.37 µM | 3.12 µM | 18 µM | – | –
3 | Nc1nnc2c(-c3ccccc3)[nH]nc2n1 | > 100 µM | > 100 µM | > 100 µM | > 100 µM | – | – | – | – | – | – | – | – | – | – | – | – | – | – | – | –
4 | COc1ccc(-c2cc(-c3ccc(Nc4nc(Nc5ccccc5)nc(Nc5ccc(Cl)cc5)n4)cc3)nc(N)n2)cc1 | 29.5 µM | > 50 µM | 16.5 µM | 20.5 µM | 48.1 µM | 6 µM | 6.55 µM | 4.63 µM | 8.28 µM | > 50 µM | 37.4 µM | > 50 µM | – | – | 5.15 µM | 6.02 µM | 6.3 µM | 21.7 µM | 15.2 µM | > 50 µM
5 | N#CCCn1[nH]c(=O)c(Cl)c(Cl)c1=O | – | 12.5 µM | 28.1 µM | 37.5 µM | 26.7 µM | – | – | – | – | – | – | – | – | – | – | – | – | – | – | 33 µM
6 | COc1cc(-c2cc(/C=C/C(=O)c3ccc(F)c(F)c3)[nH]n2)cc(OC)c1OC | 47.2 µM | – | 16.5 µM | 6 µM | – | 3.08 µM | – | 3.31 µM | 1.64 µM | 4.58 µM | 3.46 µM | 50.5 µM | 1.66 µM | 5.72 µM | 1.76 µM | – | 2.45 µM | 27 µM | 2.96 µM | 9.4 µM
7 | NC(=O)c1ccc2c(c1)-c1nc-2nc2[n-]c(nc3nc(nc4[n-]c(n1)c1ccc(C(N)=O)cc41)-c1ccc(C(N)=O)cc1-3)c1ccc(C(N)=O)cc21.[Co+2] | > 50 µM | > 50 µM | > 50 µM | > 50 µM | > 50 µM | 14.5 µM | > 50 µM | 46.6 µM | – | – | – | – | – | – | > 50 µM | > 50 µM | – | – | > 50 µM | > 50 µM
8 | CN(C)CCNC(=O)c1cccc2c1nc(-c1ccc(F)cc1)c1ccccc12 | 11.9 µM | 21.7 µM | 11.7 µM | – | 22.8 µM | – | – | – | – | – | – | – | – | – | – | – | – | – | – | –
9 | CCOC(=O)c1c(-c2ccccc2)[n+](=O)c2cc(Cl)c(Cl)cc2n1[O-] | – | 34.5 µM | > 100 µM | 1.51 µM | 30.2 µM | – | 17.6 µM | 3.29 µM | 2.09 µM | 5.55 µM | 18 µM | 44.7 µM | 0.769 µM | 62.1 µM | 0.285 µM | 8.7 µM | – | – | – | –
